# Measured values: patent US7696221B2, “Thienoisoquinoline-phenylsulfonamides and their use as ER-NFκB inhibitors” (Wyeth LLC, priority 2004, dated 2010)
# Assays:
# IL-6 = IL-6 assay (ELISA) in Ad5-wt-ER infected HAECT-1 cells; format: cell-based, human; settings: for ER/IL-6 % Eff: relative to the maximal inhibition observed with E2; for IC50: IL-1 treated
# Method: (§1) After four hours, cells were washed with EBM-BSA and incubated overnight in the same medium. […] After two hours, cells were washed and incubated at 34° C. for 1 hour. Cells were then washed, trypsinized, counted and resuspended in 95% FBS/5% dimethylsulfoxide at a concentration of 4×10^6 cells/ml, frozen as 1 or 5 ml aliquots in cryo-vials and stored at −150° C. Control (no ER infection) cells were processed as above without Ad5-wt-hER virus infection. […] Cells were subsequently washed with 300 l of Dulbecco's phosphate buffered saline and lysed in 50 l of Cell Culture Lysis Reagent (Promega). Luciferase was determined on a Wallac Victor^2 Luminometer (Gaithersburg, Md.) using 10 l of lysate and mixing with 100 l of Promega Luciferase Assay reagent. Creatine kinase was determined from the rate of increase in A340 following addition of 100 l of CK assay reagent (Sigma, cat. […] For IC50 and EC50 calculations, mean IL-6, luciferase or CK values versus log10 of the compound concentration were fitted to a four parameter logistic equation. The IC50/EC50 value, ‘Hill slope’, upper and lower limits of the curve were iteratively estimated.
# creatine kinase = test: Creatine kinase assay in Ad5-wt-ER infected HAECT-1 cells; format: cell-based, human; settings: for EC50: Homo sapiens, HAECT1, N/O = activity not observed at doses tested, read-out: ER/CK EC50; for ER/CK % Eff*: relative to the maximal stimulation observed with E2; for ER/CK EC50: N/O = activity not observed at doses tested
# Method: as §1
# NF-κB = test: NFκB-luciferase assay in Ad5-wt-ER infected HAECT-1 cells; format: cell-based, human; settings: for IC50: IL-1 treated, read-out: ER/NF-KB-luc IC50; for ER/NF-KB-luc % Eff*: relative to the maximal inhibition observed with E2
# Method: T-175 flasks of 100% confluent HAECT-1 cells (immortalized human aortic endothelial cells) were washed with 8 ml of HBSS (HEPES buffered saline solution) and infected for four hours with 6 ml of a 1:10 dilution of Ad5-wt-hER virus (an adenovirus transfection vector that mediates CMV promoter driven expression of human ER) in phenol red free Endothelial Cell Basal medium (Clonetics, San Diego Calif., Catalog # CC-3129) containing 0.25% bovine serum albumin (EBM-BSA). After four hours, cells were washed with EBM-BSA and incubated overnight in the same medium. Following overnight incubation, cells were washed with EBM-BSA and infected for 2 hours with 6 ml of a 1:10 dilution of Ad5-3×(NF B).Luc virus (Adenovirus luciferase expression vector driven by 3 repeats of the MHC NF b site 5′ to the thymidine kinase promoter) in EBM-BSA. After two hours, cells were washed and incubated at 34° C. for 1 hour. Cells were then washed, trypsinized, counted and resuspended in 95% FBS/5% dimethylsulfoxide at a concentration of 4×10^6 cells/ml, frozen as 1 or 5 ml aliquots in cryo-vials and stored at −150° C. Control (no ER infection) cells were processed as above without Ad5-wt-hER virus infection.
# ER infected HAECT-1 cells or control cells were thawed, diluted 42× in warm EBM-BSA, plated into 96-well plates at 0.1 ml/well and incubated for 4 h at 34° C. Test compounds were added to the cells as 2× stocks in EBM-BSA containing 2 ng/ml IL-1 (R&D Systems) and plates were returned to the incubator (34° C.). After 15-20 h, 100 l aliquots of media were removed from the cells and assayed for IL-6 content using a BioSource human IL-6 ELISA Kit. Cells were subsequently washed with 300 l of Dulbecco's phosphate buffered saline and lysed in 50 l of Cell Culture Lysis Reagent (Promega). Luciferase was determined on a Wallac Victor^2 Luminometer (Gaithersburg, Md.) using 10 l of lysate and mixing with 100 l of Promega Luciferase Assay reagent. Creatine kinase was determined from the rate of increase in A340 following addition of 100 l of CK assay reagent (Sigma, cat. No 47-10) to the remainder of the cell lysate.
# For IC50 and EC50 calculations, mean IL-6, luciferase or CK values versus log10 of the compound concentration were fitted to a four parameter logistic equation. The IC50/EC50 value, ‘Hill slope’, upper and lower limits of the curve were iteratively estimated.
# [1] = Ad5-wt-ER infected HAECT-1 cells
# [2] = Homo sapiens, HAECT1, Ad5-wt-ER infected HAECT-1 cells
Compound,melting point [°C],ER/IL-6 % Eff (IL-6; [1]) [%],IC50 (IL-6; [2]) [µM],EC50 (creatine kinase) [µM],ER/CK % Eff* (creatine kinase) [%],ER/CK EC50 (creatine kinase),IC50 (NF-κB) [µM],ER/NF-KB-luc % Eff* (NF-κB) [%],IC50 (IL-6; [1]) [µM]
CCc1cc2c(s1)-c1ccccc1C(CC)N2S(=O)(=O)c1ccc(O)cc1 (stereo not drawn),119 to 122,–,–,–,–,–,–,–,–
"CC1c2ccccc2-c2sccc2N1S(=O)(=O)c1ccc(O)cc1 (stereo not drawn) [Example 4, 4-[(5-Methylthieno[3,2-c]isoquinolin-4(5H)-yl)sulfonyl]phenol]",163 to 165,172,0.0668,0.1,42,–,–,–,–
"CCC1c2ccccc2-c2sccc2N1S(=O)(=O)c1ccc(O)cc1 (stereo not drawn) [Example 5, 4-[(5-Ethylthieno[3,2-c]isoquinolin-4(5H)-yl)sulfonyl]phenol]",169 to 171,174,0.0213,–,–,N/O,–,–,–
"CC1c2ccccc2-c2sc(Br)cc2N1S(=O)(=O)c1ccc(O)cc1 (stereo not drawn) [Example 6, 4-[(2-Bromo-5-methylthieno[3,2-c]isoquinolin-4(5H)-yl)sulfonyl]phenol]",209 to 211,162,0.0282,–,–,N/O,–,–,–
"C[C@@H]1c2ccccc2-c2sc(Br)cc2N1S(=O)(=O)c1ccc(O)cc1 [Example 7, 4-{[(5R)-2-bromo-5-methylthieno[3,2-c]isoquinolin-4-(5H)-yl]sulfonyl}phenol]",–,161,–,–,–,N/O,1.45,84,5.82
"C[C@H]1c2ccccc2-c2sc(Br)cc2N1S(=O)(=O)c1ccc(O)cc1 [Example 8, 4-{[(5S)-2-bromo-5-methylthieno[3,2-c]isoquinolin-4-(5H)-yl]sulfonyl}phenol]",–,164,–,–,–,N/O,0.019,92,0.0089
"CCC1c2ccccc2-c2sc(Br)cc2N1S(=O)(=O)c1ccc(O)cc1 (stereo not drawn) [Example 9, 4-[(2-Bromo-5-ethylthieno[3,2-c]isoquinolin-4(5H)-yl)sulfonyl]phenol]",183 to 185,194,0.0077,0.047,33,–,–,–,–
"CCC1c2ccccc2-c2sc(-c3ccsc3)cc2N1S(=O)(=O)c1ccc(O)cc1 (stereo not drawn) [Example 10, 4-[(5-Ethyl-2-thien-3-ylthieno[3,2-c]isoquinolin-4(5H)-yl)sulfonyl]phenol]",195 to 196,–,–,–,–,–,–,–,–
"CCC1c2ccccc2-c2sc(-c3ccccc3)cc2N1S(=O)(=O)c1ccc(O)cc1 (stereo not drawn) [Example 11, 4-[(5-Ethyl-2-phenylthieno[3,2-c]isoquinolin-4(5H)-yl)sulfonyl]phenol]",–,132,0.0246,0.015,63,–,–,–,–
"CC1c2ccccc2-c2sc(Br)cc2N1S(=O)(=O)c1ccc(O)c(Br)c1 (stereo not drawn) [Example 12, 2-Bromo-4-[(2-bromo-5-methylthieno[3,2-c]isoquinolin-4(5H)-yl)sulfonyl]phenol]",–,197,1.48,1.54,35,–,–,–,–
"C[C@]12CC[C@@H]3c4ccc(O)cc4CC[C@H]3[C@@H]1CC[C@@H]2O [Example E2, 17β-estradiol, reference compound]",–,100,–,0.0058,100,–,–,–,0.0017
